Measured values: patent US20200055871A1, “ACTIVATORS OF THE RETINOIC ACID INDUCIBLE GENE "RIG-I" PATHWAY AND METHODS OF USE THEREOF” (Kineta Immuno-Oncology LLC, priority 2018, published 2020)

What was measured:
[1] = tested on: RIG-I deficient CT26 RIG-I−/− cells; assay: CXCL10 secretion by RIG-I deficient CT26 RIG-I−/− cells (ELISA); format: cell-based, murine; conditions: compound 5 to 20 μM, 24 h; further: key: −: about 0 pg/mL of CXCL10, or below the level of quantitation
Method in brief: (§1)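 CT26 murine colon carcinoma cells, parental or CRISPR RIG-I−/−, seeded and grown 24 hr at 37° C, then treated with compounds at 10 μM, or at 5 or 20 μM for some. Secreted CXCL10 measured by ELISA in supernatants 24 h after treatment and reported in pg/mL bands.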

[2] = tested on: IRF3 signaling pathway in THP1-Lucia™ ISG cells; assay: THP1-Lucia ISG reporter assay: induction of IRF3-dependent gene expression (secreted luciferase); format: cell-based, human; conditions: 10 μM compound, PMA-differentiated cells, 18 h after stimulation
Method in brief: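 PMA-differentiated THP-1 reporter cells (ISRE/ISG54 promoter driving secreted luciferase), plus CRISPR IRF3−/− line, treated with compounds at 5–20 μM (mostly 10 μM). Luciferase measured 18 h later; values are fold increase over untreated background, binned from <2.4 to ≥40.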

[3] = tested on: murine CT26 colon carcinoma cells; assay: RIG-I dependent CXCL10 secretion by CT26 cells (ELISA); format: cell-based; conditions: 10 μM compound, supernatant 24 h after stimulation
Method in brief: as §1

[4] = tested on: IRF3-deficient THP1-Lucia™ ISG IRF3−/− cells; assay: THP1-Lucia ISG IRF3−/− reporter assay (IRF3-deficient control cells); format: cell-based, human; conditions: compound 5 to 20 μM, 18 h
Experimental: The promoter was comprised of five IFN-stimulated response elements (ISRE) fused to an ISG54 minimal promoter which is unresponsive to NF-kB or AP-1 pathways. […] The IRF3-deficient THP1-Lucia™ ISG IRF3−/−reporter cell line was generated by CRISPR technology from the parent THP1-Lucia™ ISG reporter cell line.
THP1-Lucia™ ISG cells and IRF3-deficient THP1-Lucia™ ISG IRF3−/−cells were differentiated with PMA (100 ng/ml) and stimulated with compounds at the indicated concentrations (5 to 20 μM), positive control, or not treated (background). Luciferase secretion was quantified using the QUANTI-Luc luciferase assay system (InvivoGen) 18 h after stimulation. Data are shown as fold increase luciferase activity over background in Table 7 and represent the IRF3-dependent ISG54 promoter activity by the THP1-Lucia™ ISG cells in response to compounds. […] The fold increase of compounds (10 μM, *20 μM, **5 μM) induced IRF3 dependent luciferase activity is indicated as follows: “≠” indicates less than 2.4 fold increase; “+” indicates a 2.4-4.9 fold increase; “++” indicates a 5-9.9 fold increase; “+++” indicates a 10-19 fold increase; “++++” indicates a 20-39 fold increase; “+++++” indicates greater than or equal to 40 fold increase.

[5] = tested on: murine CT26 colon carcinoma cells; assay: Compound-induced immunogenic cell death: apoptosis (Annexin V) and calreticulin translocation by flow cytometry; format: cell-based; conditions: 18 h after treatment, dose titration, FIG. 1
Experimental: To determine if the RIG-I agonist compounds induce immunogenic cell death in cancer cells, induction of apoptosis and the translocation of calreticulin (CRT) to the cell surface in murine CT26 colon carcinoma cells were evaluated. The translocation of CRT occurs as part of a specific RIG-I dependent danger-signaling system, and the presence of CRT on the cell membrane promotes tumor antigen uptake by the dendritic cells and leads to the induction of an antigen-specific T cell response
The induction of apoptosis and the CRT translocation were measured by flow cytometry. […] Cells were harvested 18 h after treatment and then prepared for flow cytometry using an Annexin V staining kit (Biolegend) for quantification of apoptosis, an anti-CRT antibody (Abgent) for calreticulin translocation, and the Live/Dead-Violet staining kit (Thermofisher) for cell viability. Induction of apoptosis and translocation of calreticulin (CRT) to cell surface by live cells was determined by tri-color flow cytometry using FITC-labeled Annexin V, Live/Dead-iolet (LDV), and APC-anti-CRT. Apoptotic cells were defined as Annexin V^+ and calreticulin translocation to cell surface was quantified by mean fluorescent intensity (MFI) of calreticulin^+ live cells (CRT^+ LDV^−). […]

Compound	CXCL10 secretion, CT26 RIG-I−/− [1]	fold increase of IRF3-dependent luciferase activity over background, THP1 ISG [2]	CXCL10 secretion, CT26 [3]	fold increase of luciferase activity, THP1 ISG IRF3−/− [4]	induction of immunogenic cell death (apoptosis, calreticulin translocation to cell surface) [5]
N-{5,12-dithia-3-azatricyclo[7.3.0.0^2,^6]dodeca-1,3,6,8,10-pentaen-11-yl}-3-[4-(morpholin-4-yl)butoxy]-[1,1′-biphenyl]-4-carboxamide [Example 62]	−	+++ (a 10-19 fold increase)	++++ (800 to 1599 pg/mL)	− (less than 0.5 fold above baseline was considered below the level of quantitation)	induction of immunogenic cell death
O=C(Nc1nc2ccc3scnc3c2o1)c1cc2ccccc2cc1OCCCCN1CCOCC1 [Example 59, 3-[4-(morpholin-4-yl)butoxy]-N-{3-oxa-10-thia-5,12-diazatricyclo [7.3.0.0^2,^6]dodeca-1,4,6,8,11-pentaen-4-yl}naphthalene-2-carboxamide]	−	++ (a 5-9.9 fold increase)	+++++ (greater than or equal to 1600 pg/ml)	− (less than 0.5 fold above baseline was considered below the level of quantitation)	
O=C(Nc1cc2ccc3scnc3c2s1)c1cc2c(cc1OCCN1CCOCC1)OCO2 [Example 63, N-{5,12-dithia-3-azatricyclo[7.3.0.0^2,^6]dodeca-1,3,6,8,10-pentaen-11-yl}-6-[2-(morpholin-4-yl)ethoxy]-2H-1,3-benzodioxole-5-carboxamide]	−	≠ (less than 2.4 fold increase)	≠ (less than 100 pg/mL)	− (less than 0.5 fold above baseline was considered below the level of quantitation)	
